What was measured:
R. meliloti = test: Sensitivity of R. meliloti to PTC and PTT; assay type: cell-based, Rhizobium meliloti
Text: Plasmids pIB17.1 and pIB17.2 were therefore transferred by means of a 2 factor cross into the Rhizobium meliloti strain 2011.

Botrytis cinerea = conditions: cited from earlier work
[1] = test system: Gram-positive and Gram-negative bacteria; conditions: cited from earlier work
GS = conditions: E. coli with endogenous deacetylase activity
Description: The deacetylase converts N-Ac-PTC into PTC, which then inhibits the GS in a known manner, as can be measured in a γ-glutamyltransferase assay (Bender et al., J. Bacteriol. 129, 1001-1009, 1977).

Nicotiana tabacum = test: Treatment of Nicotiana tabacum plants carrying the deacetylase gene; assay type: in vivo; conditions: transgenic Nicotiana tabacum, killed by liberated PTC or PTT
Description: The deacetylase gene which was modified in Example 1 was transferred into A. tumefaciens LBA4404 using a two-factor cross. Nicotiana tabacum leaf disks were incubated with the resulting strains LBA4404/17.1 and LBA4404/17.2 and, after 3 days, transferred to a kanamycin-containing shoot-inducing medium. Southern hybridization can be used to test regenerating kanamycin-resistant shoots for the presence of the deacetylase gene.

wild-type plant = test: Injection of N-acetyl-PTC or N-acetyl-PTT into tobacco plants: stability, transport, effect on wild-type plant; assay type: in vivo
plants [2] = test: Herbicidal activity, uptake, transport and deacetylation in plants; assay type: in vivo; conditions: for deacetylation activity in plants / uptake, transport and degradation in plants: in vivo; for herbicidal activity: plants without deacetylase gene
Text: In this way, the above-described 2-gene system can be reduced to a 1-gene system and thereby crucially simplified, as explained in more detail below: any plants can be transformed with a Streptomycetes-derived deacetylase gene under the control of a tissue-specific promoter. Following application of N-acetylphosphinothricin or N-acetylphosphinothricin-tripeptide, the tissue-specific expression leads to the immediate death of the corresponding tissue.

plants [3] = conditions: in vivo; cited from earlier work
[4] = test system: glutamine synthetase (GS); conditions: cited from earlier work

| Molecule | sensitivity of R. meliloti (R. meliloti) | activity against the fungus Botrytis cinerea (Botrytis cinerea) | activity against Gram-positive and Gram-negative bacteria [1] | inhibition of GS activity after adding the substance (GS) | effect on plants containing the deacetylase gene (Nicotiana tabacum) | stability and transport in the plant cell (wild-type plant; in vivo) | consequences for the wild-type plant (wild-type plant) | deacetylation activity in plants (plants [2]) | uptake, transport and degradation in plants (plants [2]) | herbicidal activity (plants [2]) | herbicidal action (plants [3]) | inhibitor of glutamine synthetase (GS) [4] |
| --- | --- | --- | --- | --- | --- | --- | --- | --- | --- | --- | --- | --- |
| C[C@H](NC(=O)[C@H](C)NC(=O)[C@@H](N)CCP(C)(=O)O)C(=O)O [PTT, phosphinothricylalanylalanine] | reacts very sensitively | also against the fungus Botrytis cinerea | active against Gram-positive and Gram-negative bacteria | – | – | – | – | – | – | – | – | – |
| CC(=O)NC(CCP(C)(=O)O)C(=O)O (stereo not drawn) [N-acetyl-PTC, N-acetylphosphinothricin] | – | – | – | efficient inhibition of GS activity | the plants are then killed | stable in the plant cell and transported into all cells | Neither of the two substances has recognizably negative consequences | No deacetylation activity | taken up by plants and transported and not degraded immediately | neither substance is herbicidally active | – | – |
| 2-amino-4-methylphosphinobutyric acid [PTC] | reacts very sensitively | – | – | – | – | – | – | – | – | – | acts as a total herbicide | inhibitor of glutamine synthetase |
| CC(=O)NC(CCP(C)(=O)O)C(=O)NC(C)C(=O)NC(C)C(=O)O (stereo not drawn) [N-acetyl-PTT, N-acetylphosphinothricin tripeptide] | – | – | – | – | the plants are then killed | – | Neither of the two substances has recognizably negative consequences | No deacetylation activity | taken up by plants and transported and not degraded immediately | neither substance is herbicidally active | – | – |

Source: patent US6852909B2, “Process for producing female-sterile plants” (priority 1996, dated 2005)
